Patent publication US20200054651A1, “COMPOSITIONS AND METHODS FOR MODULATING PPP2R1A” (The Regents of the University of California, priority 2017, published 2020)

Experiments:
[1] = system: 231MFP breast cancer cells; assay: 231MFP cell proliferation (Hoechst staining); format: cell-based; conditions: 100 μM, 48 h, 231MFP
[2] = molecular target: T1, pure human PPP2R1A protein (Homo sapiens, UniProt P30153); assay: Gel-based ABPP, competition against IAyne labeling; format: binding; conditions: 30 min at 37° C. pre-treatment, IAyne labeling
T1 construct: purchased Origene
Experimental: Gel-based ABPP methods were performed using the methods described in “Chem Biol 22(10), 1394-1405 (2015)” by Medina-Cleghorn D., et al. Recombinant pure human proteins were purchased from Origene. Pure proteins were pre-treated with DMSO, Withaferin A, or acrylamide or chloroacetamide compounds (e.g., DKM 2-90 or JNS 1-40) for 30 minutes at 37° C. in an incubation volume of PBS (50 μL), and were subsequently treated with IAyne (10 μM final concentration) for 30 minutes at room temperature. CuAAC was performed to append rhodamine-azide onto IAyne probe-labeled proteins. The samples were separated by SDS/PAGE and scanned using a ChemiDoc MP. Inhibition of target labeling was assessed by densitometry using ImageStudio Light software.

T1 sequence (P30153 whole entry): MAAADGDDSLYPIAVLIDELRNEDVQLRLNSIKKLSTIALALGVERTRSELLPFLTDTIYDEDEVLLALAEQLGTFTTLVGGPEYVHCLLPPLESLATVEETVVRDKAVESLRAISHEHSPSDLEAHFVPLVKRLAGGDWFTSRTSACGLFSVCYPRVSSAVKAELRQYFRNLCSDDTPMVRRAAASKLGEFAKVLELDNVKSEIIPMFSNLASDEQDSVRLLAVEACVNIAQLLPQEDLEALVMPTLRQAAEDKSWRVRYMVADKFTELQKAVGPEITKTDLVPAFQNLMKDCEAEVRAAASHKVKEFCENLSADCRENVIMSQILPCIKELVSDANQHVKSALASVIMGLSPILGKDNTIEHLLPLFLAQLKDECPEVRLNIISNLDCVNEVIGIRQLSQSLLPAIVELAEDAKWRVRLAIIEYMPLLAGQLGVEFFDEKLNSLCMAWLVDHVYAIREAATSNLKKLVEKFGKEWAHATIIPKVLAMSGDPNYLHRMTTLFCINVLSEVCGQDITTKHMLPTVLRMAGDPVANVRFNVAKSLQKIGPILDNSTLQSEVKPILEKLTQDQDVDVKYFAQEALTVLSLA

IC50 [2] [µM] | SMILES | cell proliferation [1]
 | O=C(CCl)Nc1cccc2c1CCC2 [DKM 2-91] | lead compounds
300 | O=C(CCl)Nc1ccc2c(c1)CCCC2 [JNS 1-37, 2-Chloro-N-(5,6,7,8-tetrahydronaphthalen-2-yl)acetamide] | 
